Laboratory results: patent publication US8071376B2, “Production of oligodendrocytes from placenta-derived stem cells” (Anthrogenesis Corporation, priority 2005, dated 2011)

Assays:
OPCs [1] = details: cells cultured 72 hrs with 1 μM staurosporine; background 10,000 cpm; Ebner 2000; cited from earlier work
OPCs [2] = details: background migration 1,000 cells/mm^2; Armstrong et al. 1990; cited from earlier work
[3] = tested on: oligodendrocyte progenitors; assay: Quantitative 3H-thymidine incorporation proliferation assay; format: cell-based; details: recombinant growth factor; background 500-1000 cpm without growth factor
Protocol: Proliferation assay: The ability of oligodendrocyte progenitors to generate a mitogenic response to specific ligands is measured in a quantitative ^3H-thymidine incorporation assay. Cells are exposed to growth factors, in a dose range that brackets the maximal response to FGF and PDGF, in order to determine the half-maximal response. Responses range from a background of 500-1000 cpm (no growth factor) to 10,000 cpm (recombinant PDGF-AA), and the assay is sufficiently sensitive to accurately detect partial mitogenic responses. All cell proliferation assays are optionally performed at least three independent times. For qualitative assays, cells are exposed to mitogens with 50 μM BrdU (Sigma) present for the final 4 hrs, and DNA synthesis is monitored by dual immunofluorescence for BrdU (Osterhout et al., J. Neurosci. 17:9122-9132 (1997)) and a second lineage marker.
Proliferation assays are performed on cells that have been removed from mitogens for 24 hrs prior to exposure to recombinant growth factors to reduce background levels of DNA synthesis. […] Nucleic acid is recovered using an automatic harvester (Brandel) and the incorporated radioactivity measured by scintillation counting. […]

Row | Compound | 32P incorporation into 3'-ends of DNA (OPCs [1]) | chemotaxis, cells migrated (OPCs [2]) | mitogenic response, 3H-thymidine incorporation [3]
1 | CN[C@@H]1C[C@H]2O[C@@](C)([C@@H]1OC)n1c3ccccc3c3c4c(c5c6ccccc6n2c5c31)C(=O)NC4 [staurosporine] | 100,000 cpm |  | 
2 | PDGF-AA: recombinant (human) polypeptide growth factor, oligodendrocyte progenitor cell mitogen |  | 4,000 cells/mm^2 | 10,000 cpm
